The source of these data is US10179790B2 (THOMAS HELLEDAYS STIFTELSE FOR MEDICINSK FORSKNING, priority 2014, dated 2019).

One assay concerns the target MTH1 (Homo sapiens, UniProt P36639). As to the kind of experiment: MTH1 enzymatic assay and IC50 value determination (malachite green, 96- and 384-well format). To be noted: hydrolysis of dGTP (100 μM), MTH1 6 nM, pyrophosphatase-coupled malachite green, 15 minutes at 22° C. It counts as biochemical. Put shortly:
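MTH1 (6 nM) hydrolysed dGTP (100 μM) for 15 min at 22 °C in Tris-acetate buffer with Mg2+, DTT, Tween 20 and excess pyrophosphatase, 1% DMSO. Pi detected with malachite green at 630 nm. IC50 from nonlinear 4-parameter fit of 11–12-point dilution series.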

The test system of another assay is cancer cell. Description: Cell viability assay (resazurin). It counts as cell-based. To be noted: 72 h; 3 days with compound, resazurin fluorescence; cell line not named. Put shortly:
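Cells in DMEM GlutaMAX or line-appropriate medium are exposed to compound for 3 days at 37 °C, 5% CO2. Viability is read as resazurin fluorescence (Ex544/Em590) after 2 h incubation. In the 384-well format, cells are seeded onto 11 pre-dispensed concentrations (final DMSO <1%) and read after 3 h resazurin.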
(In general: Alamar Blue is a resazurin reagent that responds to reducing activity.)

Usually IC50 stands for the midpoint of a concentration-inhibition curve. In the case of `Cc1c(Cl)cccc1-c1cc(NCCNc2cccc(S(=O)(=O)C(C)C)c2)nc(N)n1` [Example 166, 6-(3-Chloro-2-methyl-phenyl)-N4-[2-(3-isopropylsulfonylanilino)ethyl]pyrimidine-2,4-diamine], the IC50 on MTH1 is under 200 nM; in the assay with cancer cell it was under 500 nM.

In the case of `Cc1c(Cl)cccc1-c1cc(NCCCNc2ccc(C(N)=O)cn2)nc(N)n1` [Example 167, 6-[3-[[2-amino-6-(3-chloro-2-methyl-phenyl)pyrimidin-4-yl]amino]propylamino]pyridine-3-carboxamide], the figures for the IC50 against MTH1 and with cancer cell were under 200 nM and under 500 nM, respectively.

Regarding `Cc1c(Cl)cccc1-c1cc(NCCCNc2nccc(C(N)=O)n2)nc(N)n1` [Example 168, 2-[3-[[2-amino-6-(3-chloro-2-methyl-phenyl)pyrimidin-4-yl]amino]propylamino]pyrimidine-4-carboxamide], the 50% inhibitory concentration (IC50) against MTH1 is under 200 nM; with cancer cell, under 500 nM.

For `Cc1c(Cl)cccc1-c1cc(NCCc2ccc(S(=O)(=O)C(C)C)cc2)nc(N)n1` [Example 169, 6-(3-chloro-2-methyl-phenyl)-N4-[2-(4-isopropylsulfonylphenyl)ethyl]pyrimidine-2,4-diamine], the IC50 on MTH1 is under 200 nM; in the assay with cancer cell, under 500 nM.

For the molecule `Cc1c(Cl)cccc1-c1cc(NCCc2cccc(S(=O)(=O)C(C)C)c2)nc(N)n1` [Example 170], the results for the half-maximal inhibitory concentration (IC50) on MTH1 and in the assay with cancer cell were under 200 nM and under 500 nM, respectively.

As to `Cc1c(Cl)cccc1-c1cc(NCCc2ccc(C(N)=O)c(F)c2)nc(N)n1` [Example 171, 4-[2-[[2-amino-6-(3-chloro-2-methyl-phenyl)pyrimidin-4-yl]amino]ethyl]-2-fluoro-benzamide], the IC50 is under 200 nM against MTH1 and under 500 nM in the assay on cancer cell.

As for `Cc1c(Cl)cccc1-c1cc(NCCc2ccc(S(C)(=O)=O)c(F)c2)nc(N)n1` [Example 172, 6-(3-chloro-2-methyl-phenyl)-N4-[2-(3-fluoro-4-methylsulfonyl-phenyl)ethyl]pyrimidine-2,4-diamine], the 50% inhibitory concentration (IC50) was under 200 nM against MTH1 and under 500 nM in the assay on cancer cell.

For the molecule `Cc1c(Cl)cccc1-c1cc(NCCc2ccc(O)c(C(N)=O)c2)nc(N)n1` [Example 173, 5-[2-[[2-amino-6-(3-chloro-2-methyl-phenyl)pyrimidin-4-yl]amino]ethyl]-2-hydroxy-benzamide], the half-maximal inhibitory concentration (IC50) was under 200 nM on MTH1 and under 500 nM in the assay with cancer cell.

Consider `Cc1c(Cl)cccc1-c1cc(NCCSc2nccc(C(N)=O)n2)nc(N)n1` [Example 174, 2-[2-[[2-amino-6-(3-chloro-2-methyl-phenyl)pyrimidin-4-yl]amino]ethylsulfanyl]pyrimidine-4-carboxamide], for which the IC50 at MTH1 was under 200 nM; in the assay on cancer cell, under 500 nM.

In the case of `Cc1c(Cl)cccc1-c1cc(NCCSCc2ccc(S(C)(=O)=O)cc2)nc(N)n1` [Example 176, 6-(3-chloro-2-methyl-phenyl)-N4-[2-[(4-methylsulfonylphenyl)methylsulfanyl]ethyl]pyrimidine-2,4-diamine], the IC50 was under 200 nM against MTH1 and under 500 nM with cancer cell.

Take `Cc1c(Cl)cccc1-c1cc(NCCc2ccc(C(=O)OC(C)C)cc2)nc(N)n1` [Example 178, Isopropyl 4-[2-[[2-amino-6-(3-chloro-2-methyl-phenyl)pyrimidin-4-yl]amino]ethyl]benzoate]: the half-maximal inhibitory concentration (IC50) was under 200 nM against MTH1 and under 500 nM in the assay on cancer cell.

Regarding `Cc1c(Cl)cccc1-c1cc(NCCSc2ccc(S(N)(=O)=O)cn2)nc(N)n1` [Example 180, 6-[2-[[2-amino-6-(3-chloro-2-methyl-phenyl)pyrimidin-4-yl]amino]ethylsulfanyl]pyridine-3-sulfonamide], the IC50 against MTH1 is under 200 nM; in the assay on cancer cell, under 500 nM.

In the case of `COC(=O)c1ccc(CSCCNc2cc(-c3cccc(Cl)c3C)nc(N)n2)cc1` [Example 181, methyl 4-[2-[[2-amino-6-(3-chloro-2-methyl-phenyl)pyrimidin-4-yl]amino]ethylsulfanylmethyl]benzoate], the IC50 on MTH1 was under 200 nM; in the assay on cancer cell, under 500 nM.

As to `COC(=O)c1ccc(CCNc2cc(-c3cccc(Cl)c3C)nc(N)n2)cc1` [Example 182, methyl 4-[2-[[2-amino-6-(3-chloro-2-methyl-phenyl)pyrimidin-4-yl]amino]ethyl]benzoate], the values for the IC50 against MTH1 and with cancer cell were under 200 nM and under 500 nM, respectively.

With `CCOC(=O)c1ccc(CCNc2cc(-c3cccc(Cl)c3C)nc(N)n2)cc1` [Example 183, ethyl 4-[2-[[2-amino-6-(3-chloro-2-methyl-phenyl)pyrimidin-4-yl]amino]ethyl]benzoate], the IC50 on MTH1 was under 200 nM; in the assay on cancer cell it was under 500 nM.

As for `CCCOC(=O)c1ccc(CCNc2cc(-c3cccc(Cl)c3C)nc(N)n2)cc1` [Example 184, propyl 4-[2-[[2-amino-6-(3-chloro-2-methyl-phenyl)pyrimidin-4-yl]amino]ethyl]benzoate], the IC50 at MTH1 was under 200 nM; in the assay with cancer cell, under 500 nM.

Consider `Cc1c(Cl)cccc1-c1cc(NCCc2ccc(C(=O)OCCO)cc2)nc(N)n1` [Example 185, 2-hydroxyethyl 4-[2-[[2-amino-6-(3-chloro-2-methyl-phenyl)pyrimidin-4-yl]amino]ethyl]benzoate], for which the IC50 against MTH1 is under 200 nM; with cancer cell, under 500 nM.

Consider `Cc1c(Cl)cccc1-c1cc(NCCc2ccc(C(=O)OCCS(C)(=O)=O)cc2)nc(N)n1` [Example 186, 2-methylsulfonylethyl 4-[2-[[2-amino-6-(3-chloro-2-methyl-phenyl)pyrimidin-4-yl]amino]ethyl]benzoate], for which the half-maximal inhibitory concentration (IC50) against MTH1 was under 200 nM; in the assay on cancer cell, under 500 nM.

For the molecule `Cc1c(Cl)cccc1-c1cc(NCCc2ccc(C(=O)OCC(O)CO)cc2)nc(N)n1` (centres unmarked) [Example 187, 2,3-dihydroxypropyl 4-[2-[[2-amino-6-(3-chloro-2-methyl-phenyl)pyrimidin-4-yl]amino]ethyl]benzoate], the half-inhibitory concentration (IC50) at MTH1 is under 200 nM; in the assay with cancer cell, under 500 nM.

Consider `Cc1c(Cl)cccc1-c1cc(NCCNc2ccc(S(C)(=O)=O)nc2)nc(N)n1` [Example 188, 6-(3-chloro-2-methyl-phenyl)-N4-[2-[(6-methylsulfonyl-3-pyridyl)amino]ethyl]pyrimidine-2,4-diamine], for which the IC50 on MTH1 is under 200 nM; in the assay on cancer cell, under 500 nM.

On to `CC(=O)Nc1ccc(NCCNc2cc(-c3cccc(Cl)c3C)nc(N)n2)cc1C` [Example 189, N-[4-[2-[[2-amino-6-(3-chloro-2-methyl-phenyl)pyrimidin-4-yl]amino]ethylamino]-2-methyl-phenyl]acetamide], for which the 50% inhibitory concentration (IC50) on MTH1 was under 200 nM; in the assay on cancer cell, under 500 nM.

On to `CCc1ccc(CCNc2cc(-c3cccc(Cl)c3C)nc(N)n2)cc1` [Example 191, 6-(3-chloro-2-methyl-phenyl)-N4-[2-(4-ethylphenyl)ethyl]pyrimidine-2,4-diamine], for which the 50% inhibitory concentration (IC50) on MTH1 was under 200 nM; with cancer cell, under 500 nM.

`Cc1c(Cl)cccc1-c1cc(NCCc2ccc(C(=O)NC(C)CO)cc2)nc(N)n1` (centres unmarked) [Example 194, 4-(2-{[2-amino-6-(3-chloro-2-methylphenyl)pyrimidin-4-yl]amino}ethyl)-N-(1-hydroxypropan-2-yl)benzamide]: the IC50 is under 200 nM against MTH1 and under 500 nM in the assay on cancer cell.

`Cc1c(Cl)cccc1-c1cc(NCCc2ccc(C(=O)N3CCN(C)CC3)cc2)nc(N)n1` [Example 195, 6-(3-chloro-2-methylphenyl)-4-N-{2-[4-(4-methylpiperazine-1-carbonyl)phenyl]ethyl}pyrimidine-2,4-diamine]: the half-maximal inhibitory concentration (IC50) is under 200 nM on MTH1 and under 500 nM in the assay on cancer cell.

For `Cc1c(Cl)cccc1-c1cc(NCCc2ccc([S+](C)[O-])cc2)nc(N)n1` (centres unmarked) [Example 196, 6-(3-chloro-2-methylphenyl)-N4-[2-(4-methanesulfinylphenyl)ethyl]pyrimidine-2,4-diamine], the IC50 was under 200 nM on MTH1 and under 500 nM with cancer cell.

Turning to `Cc1c(-c2cc(NCCc3ccc(S(C)(=O)=O)cc3)nc(N)n2)cccc1C(F)(F)F` [Example 198, N4-[2-(4-methanesulfonylphenyl)ethyl]-6-[2-methyl-3-(trifluoromethyl)phenyl]pyrimidine-2,4-diamine], the concentration for half-maximal inhibition (IC50) on MTH1 is under 200 nM; with cancer cell it was under 500 nM.

As for `Cc1c(Cl)cccc1-c1cc(NCCOc2nccc3occc23)nc(N)n1` [Example 200, 6-(3-chloro-2-methylphenyl)-N4-(2-{furo[3,2-c]pyridin-4-yloxy}ethyl)pyrimidine-2,4-diamine], the IC50 on MTH1 is under 200 nM; with cancer cell it was under 500 nM.

`Cc1c(Cl)cccc1-c1cc(NCCOc2ccc(C(N)=O)cc2)nc(N)n1` [Example 201]: the IC50 was under 200 nM on MTH1 and under 500 nM in the assay with cancer cell.

In the case of `Cc1c(Cl)cccc1-c1cc(NCCOc2ccc(/C(N)=N/O)cc2)nc(N)n1` [Example 203, (Z)-4-(2-{[2-amino-6-(3-chloro-2-methylphenyl)pyrimidin-4-yl]amino}ethoxy)-N′-hydroxybenzene-1-carboximidamide], the values for the 50% inhibitory concentration (IC50) on MTH1 and in the assay with cancer cell were under 200 nM and under 500 nM, respectively.

For `Cc1c(Cl)cccc1-c1cc(NCCCOc2ccc(S(C)(=O)=O)cc2)nc(N)n1` [Example 204, 6-(3-chloro-2-methylphenyl)-N4-[3-(4-methanesulfonylphenoxy)propyl]pyrimidine-2,4-diamine], the IC50 was under 200 nM against MTH1 and under 500 nM in the assay on cancer cell.

As to `Cc1c(Cl)cccc1-c1cc(NCCCOc2nccc(C(N)=O)n2)nc(N)n1` [Example 205, 2-(3-{[2-amino-6-(3-chloro-2-methylphenyl)pyrimidin-4-yl]amino}propoxy)pyrimidine-4-carboxamide], the values for the IC50 against MTH1 and with cancer cell were under 200 nM and under 500 nM, respectively.
